# Assay results from patent US20040156869A1, “2-substituted quinazolin-4-ylamine analogues” (Neurogen Corporation, priority 2002, published 2004).
# Biological target: human capsaicin receptor (VR1) (Homo sapiens, UniProt Q8NER1)
# Experiment: Capsaicin receptor binding assay ([3H]RTX competition, VR1-transfected HEK293 membranes)
# human capsaicin receptor (VR1), sequence (Q8NER1 whole entry): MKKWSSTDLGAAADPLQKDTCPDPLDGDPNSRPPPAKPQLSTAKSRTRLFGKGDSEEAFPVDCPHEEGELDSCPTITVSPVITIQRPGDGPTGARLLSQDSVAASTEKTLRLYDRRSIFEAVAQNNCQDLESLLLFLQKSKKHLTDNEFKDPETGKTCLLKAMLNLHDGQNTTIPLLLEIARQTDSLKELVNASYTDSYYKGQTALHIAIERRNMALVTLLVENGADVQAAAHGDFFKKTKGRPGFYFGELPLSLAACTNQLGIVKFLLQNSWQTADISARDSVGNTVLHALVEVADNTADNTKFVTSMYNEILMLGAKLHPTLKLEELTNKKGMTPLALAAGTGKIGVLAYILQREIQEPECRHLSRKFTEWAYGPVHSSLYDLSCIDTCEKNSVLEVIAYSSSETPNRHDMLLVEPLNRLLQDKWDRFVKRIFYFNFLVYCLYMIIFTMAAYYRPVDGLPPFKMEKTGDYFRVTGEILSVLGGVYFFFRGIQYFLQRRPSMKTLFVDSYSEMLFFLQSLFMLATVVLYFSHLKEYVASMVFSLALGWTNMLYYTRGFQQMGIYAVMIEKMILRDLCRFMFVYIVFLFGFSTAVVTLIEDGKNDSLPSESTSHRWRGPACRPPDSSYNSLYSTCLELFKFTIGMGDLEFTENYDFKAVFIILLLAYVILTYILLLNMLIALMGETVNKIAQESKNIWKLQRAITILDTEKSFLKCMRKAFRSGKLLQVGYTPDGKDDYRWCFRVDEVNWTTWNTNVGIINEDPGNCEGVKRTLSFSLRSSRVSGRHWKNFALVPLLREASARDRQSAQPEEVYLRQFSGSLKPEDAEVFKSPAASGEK
row,Ki [µM],Structure (SMILES)
1,< 1,"CCN(CC)Cc1nc(Nc2ccc(C(F)(F)F)nc2)c2ccc(-c3ncccc3C(F)(F)F)cc2n1 [Compound 368, [2-Diethylaminomethyl-7-(3-trifluoromethyl-pyridin-2-yl)-quinazolin-4-yl]-(6-trifluoromethyl-pyridin-3-yl)-amine]"
2,< 1,"CCCN(C)Cc1nc(Nc2ccc(C(F)(F)F)nc2)c2ccc(-c3ncccc3C(F)(F)F)cc2n1 [Compound 369, [2-[(Methyl-propyl-amino)-methyl]-7-(3-trifluoromethyl-pyridin-2-yl)-quinazolin-4-yl]-(6-trifluoromethyl-pyridin-3-yl)-amine]"
3,< 1,"CCCCN(C)Cc1nc(Nc2ccc(C(F)(F)F)nc2)c2ccc(-c3ncccc3C(F)(F)F)cc2n1 [Compound 370, [2-[(Butyl-methyl-amino)-methyl]-7-(3-trifluoromethyl-pyridin-2-yl)-quinazolin-4-yl]-(6-trifluoromethyl-pyridin-3-yl)-amine]"
4,< 1,"CCCN(CCC)Cc1nc(Nc2ccc(C(F)(F)F)nc2)c2ccc(-c3ncccc3C(F)(F)F)cc2n1 [Compound 373, [2-Dipropylaminomethyl-7-(3-trifluoromethyl-pyridin-2-yl)-quinazolin-4-yl]-(6-trifluoromethyl-pyridin-3-yl)-amine]"
5,< 1,"CCCCN(CC)Cc1nc(Nc2ccc(C(F)(F)F)nc2)c2ccc(-c3ncccc3C(F)(F)F)cc2n1 [Compound 374, [2-[(Butyl-ethyl-amino)-methyl]-7-(3-trifluoromethyl-pyridin-2-yl)-quinazolin-4-yl]-(6-trifluoromethyl-pyridin-3-yl)-amine]"
6,< 1,"CCCN(Cc1nc(Nc2ccc(C(F)(F)F)nc2)c2ccc(-c3ncccc3C(F)(F)F)cc2n1)CC1CC1 [Compound 375, [2-[(Cyclopropylmethyl-propyl-amino)-methyl]-7-(3-trifluoromethyl-pyridin-2-yl)-quinazolin-4-yl]-(6-trifluoromethyl-pyridin-3-yl)-amine]"
7,< 1,"CCCCCCN(C)Cc1nc(Nc2ccc(C(F)(F)F)nc2)c2ccc(-c3ncccc3C(F)(F)F)cc2n1 [Compound 376, [2-[(Hexyl-methyl-ainino)-methyl]-7-(3-trifluoromethyl-pyridin-2-yl)-quinazolin-4-yl]-(6-trifluoromethyl-pyridin-3-yl)-amine]"
8,< 1,"CCCCN(CCCC)Cc1nc(Nc2ccc(C(F)(F)F)nc2)c2ccc(-c3ncccc3C(F)(F)F)cc2n1 [Compound 377, [2-Dibutylaminomethyl-7-(3-trifluoromethyl-pyridin-2-yl)-quinazolin-4-yl]-(6-trifluoromethyl-pyridin-3-yl)-amine]"
9,< 1,"C=C(C)CN(CC)Cc1nc(Nc2ccc(C(F)(F)F)nc2)c2ccc(-c3ncccc3C(F)(F)F)cc2n1 [Compound 380, [2-{[Ethyl-(2-methyl-allyl)-amino]-methyl}-7-(3-trifluoromethyl-pyridin-2-yl)-quinazolin-4-yl]-(6-trifluoromethyl-pyridin-3-yl)-amine]"
10,< 1,"COCCN(CCOC)Cc1nc(Nc2ccc(C(F)(F)F)nc2)c2ccc(-c3ncccc3C(F)(F)F)cc2n1 [Compound 384, [2-{[Bis-(2-methoxy-ethyl)-amino]-methyl}-7-(3-trifluoromethyl-pyridin-2-yl)-quinazolin-4-yl]-(6-trifluoromethyl-pyridin-3-yl)-amine]"
11,< 1,"CCCCCN(CCCCC)Cc1nc(Nc2ccc(C(F)(F)F)nc2)c2ccc(-c3ncccc3C(F)(F)F)cc2n1 [Compound 385, [2-Dipentylaminomethyl-7-(3-trifluoromethyl-pyridin-2-yl)-quinazolin-4-yl]-(6-trifluoromethyl-pyridin-3-yl)-amine]"
12,< 1,"CCCCCCN(CCCCCC)Cc1nc(Nc2ccc(C(F)(F)F)nc2)c2ccc(-c3ncccc3C(F)(F)F)cc2n1 [Compound 386, [2-Dihexylaminomethyl-7-(3-trifluoromethyl-pyridin-2-yl)-quinazolin-4-yl]-(6-trifluoromethyl-pyridin-3-yl)-amine]"

# The remaining lines, values behind:
row,Structure (SMILES),Ki [µM]
1,"C=CCN(C)Cc1nc(Nc2ccc(C(F)(F)F)nc2)c2ccc(-c3ncccc3C(F)(F)F)cc2n1 [Compound 367, [2-[(Allyl-methyl-amino)-methyl]-7-(3-trifluoromethyl-pyridin-2-yl)-quinazolin-4-yl]-(6-trifluoromethyl-pyridin-3-yl)-amine]",< 1
2,"CCN(Cc1nc(Nc2ccc(C(F)(F)F)nc2)c2ccc(-c3ncccc3C(F)(F)F)cc2n1)C(C)C [Compound 371, [2-[(Ethyl-isopropyl-amino)-methyl]-7-(3-trifluoromethyl-pyridin-2-yl)-quinazolin-4-yl]-(6-trifluoromethyl-pyridin-3-yl)-amine]",< 1
3,"C=CCN(CC=C)Cc1nc(Nc2ccc(C(F)(F)F)nc2)c2ccc(-c3ncccc3C(F)(F)F)cc2n1 [Compound 372, [2-Diallylaminomethyl-7-(3-trifluoromethyl-pyridin-2-yl)-quinazolin-4-yl]-(6-trifluoromethyl-pyridin-3-yl)-amine]",< 1
4,"CC(C)N(C)Cc1nc(Nc2ccc(C(F)(F)F)nc2)c2ccc(-c3ncccc3C(F)(F)F)cc2n1 [Compound 378, [2-[(Isopropyl-methyl-amino)-methyl]-7-(3-trifluoromethyl-pyridin-2-yl)-quinazolin-4-yl]-(6-trifluoromethyl-pyridin-3-yl)-amine]",< 1
5,"CC1CCCCN1Cc1nc(Nc2ccc(C(F)(F)F)nc2)c2ccc(-c3ncccc3C(F)(F)F)cc2n1 (stereo not shown) [Compound 379, [2-(2-Methyl-piperidin-1-ylmethyl)-7-(3-trifluoromethyl-pyridin-2-yl)-quinazolin-4-yl]-(6-trifluoromethyl-pyridin-3-yl)-amine]",< 1
6,"CN(Cc1nc(Nc2ccc(C(F)(F)F)nc2)c2ccc(-c3ncccc3C(F)(F)F)cc2n1)C1CCCCC1 [Compound 381, [2-[(Cyclohexyl-methyl-amino)-methyl]-7-(3-trifluoromethyl-pyridin-2-yl)-quinazolin-4-yl]-(6-trifluoromethyl-pyridin-3-yl)-amine]",< 1
7,"CCC1CCCCN1Cc1nc(Nc2ccc(C(F)(F)F)nc2)c2ccc(-c3ncccc3C(F)(F)F)cc2n1 (stereo not shown) [Compound 382, [2-(2-Ethyl-piperidin-1-ylmethyl)-7-(3-trifluoromethyl-pyridin-2-yl)-quinazolin-4-yl]-(6-trifluoromethyl-pyridin-3-yl)-amine]",< 1
8,"CCN(Cc1nc(Nc2ccc(C(F)(F)F)nc2)c2ccc(-c3ncccc3C(F)(F)F)cc2n1)C1CCCCC1 [Compound 383, [2-[(Cyclohexyl-ethyl-amino)-methyl]-7-(3-trifluoromethyl-pyridin-2-yl)-quinazolin-4-yl]-(6-trifluoromethyl-pyridin-3-yl)-amine]",< 1
9,"CC1CC(C)CN(Cc2nc(Nc3ccc(C(F)(F)F)nc3)c3ccc(-c4ncccc4C(F)(F)F)cc3n2)C1 (stereo not shown) [Compound 387, [2-(3,5-Dimethyl-piperidin-1-ylmethyl)-7-(3-trifluoromethyl-pyridin-2-y)-quinazolin-4-yl]-(6-trifluoromethyl-pyridin-3-yl)-amine]",< 1
10,"CC(c1ccccc1)N(C)CCc1nc(Nc2ccc(C(F)(F)F)cc2)c2ccc(-c3ncccc3C(F)(F)F)cc2n1 (stereo not shown) [Compound 388, [2-{2-[Methyl-(1-phenyl-ethyl)-amino]-ethyl}-7-(3-trifluoromethyl-pyridin-2-yl)-quinazolin-4-yl]-(4-trifluoromethyl-phenyl)-amine]",< 1
